Source: patent EP2108954A1, “A test system for detecting intracellular cyclic nucleotide level and methods and uses thereof” (Max-Planck-Gesellschaft zur Förderung der Wissenschaften …, priority 2008, dated 2009)

Assays:
[1] = test system: hHCN2; experiment: Gs coupling test: hHCN2 current in HEK293 cells coexpressing ORs and hHCN2; assay type: cell-based, human; conditions: 2 min 100 nM Etb; Or22a, Or83b and hHCN2 coexpressed
Protocol: (§1) HEK293 cells were cultured as described by Wicher and colleagues (Wicher et al., J. Biol. Chem. 281, 3227-36 (2006)). In brief, HEK293 cells were cultured at a density of ∼2*10^4 per 35-mm dish and transfected with 1 µg pcDNA3-DOR22a-GFP and 1 µg pcDNA3-DOR83b-GFP (Neuhaus, et al., Nat. Neurosci. 8, 15-17 (2005); DNAs were a generous gift of Dr. E. Neuhaus and Dr. H. Hatt) using Roti-Fect transfection kit (Roth, Karlsruhe, Germany). In some experiments we transfected cells with pcDNA3-DOR22a-GFP or pcDNA3-DOR83b-GFP alone. We also examined the properties of DOR47a, which was cloned, using standard molecular biology methods into a pcDNA3.1(-) expression vector. To test for putative G-protein coupling, cells were transfected with the respective OR-DNA together with 1.5 µg hHCN2/pcDNA3 (provided by M. Biel, Munich, Germany), with 1 µg hKCNQ4/pcDNA3.1 or with 1 µg hCNGA2/pCMV6-XL4 (Origene, Rockville, MD, USA).
Ion currents in HEK293 cells were measured with the patch-clamp technology as described (Wicher et al, J. Biol. Chem. 281, 3227-36 (2006)). In brief, ion currents in HEK293 cells were measured at room temperature using whole-cell patch-clamp with appropriate compensation of series resistance and of capacitive currents. Additional experiments were performed in the outside-out configuration. […]

[2] = test system: hCNGA2; experiment: Gs coupling test: hCNGA2 whole-cell current in HEK293 cells; assay type: cell-based, human
Protocol: as §1
Ion currents in HEK293 cells were measured with the patch-clamp technology as described (Wicher et al, J. Biol. Chem. 281, 3227-36 (2006)). In brief, ion currents in HEK293 cells were measured at room temperature using whole-cell patch-clamp with appropriate compensation of series resistance and of capacitive currents. Additional experiments were performed in the outside-out configuration. Current measurements and data acquisition were performed using an EPC9 patch-clamp amplifier controlled by PatchMaster software (both HEKA Elektronik, Lambrecht, Germany). Patch-clamp pipettes were fabricated from borosilicate capillaries. Pipettes for whole-cell recordings had resistances of 2-4 MΩ for excised-patch recordings the pipette resistance was up to 15 MΩ.

[3] = target: T1, Or22a and Or83b (Drosophila melanogaster, UniProt P81909+Q9VNB5); experiment: Calcium imaging (fura-2) in HEK293 cells coexpressing Or22a and Or83b; assay type: cell-based; conditions: dependent on Etb concentration and on extracellular Ca^2+
T1 construct: expressed in transfected cells; host or cells: HEK293
T1 sequence (P81909 1-397): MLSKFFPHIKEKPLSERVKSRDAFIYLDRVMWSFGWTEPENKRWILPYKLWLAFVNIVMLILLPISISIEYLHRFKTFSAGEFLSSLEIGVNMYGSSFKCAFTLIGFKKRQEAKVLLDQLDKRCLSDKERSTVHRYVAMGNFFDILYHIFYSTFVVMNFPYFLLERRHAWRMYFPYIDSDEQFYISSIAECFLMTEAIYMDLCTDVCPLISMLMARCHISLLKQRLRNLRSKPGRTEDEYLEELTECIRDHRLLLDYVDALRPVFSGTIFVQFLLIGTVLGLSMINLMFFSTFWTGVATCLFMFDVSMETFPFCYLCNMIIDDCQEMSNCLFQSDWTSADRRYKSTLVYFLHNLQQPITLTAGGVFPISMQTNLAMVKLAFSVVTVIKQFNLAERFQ
T1 sequence (Q9VNB5 1-486): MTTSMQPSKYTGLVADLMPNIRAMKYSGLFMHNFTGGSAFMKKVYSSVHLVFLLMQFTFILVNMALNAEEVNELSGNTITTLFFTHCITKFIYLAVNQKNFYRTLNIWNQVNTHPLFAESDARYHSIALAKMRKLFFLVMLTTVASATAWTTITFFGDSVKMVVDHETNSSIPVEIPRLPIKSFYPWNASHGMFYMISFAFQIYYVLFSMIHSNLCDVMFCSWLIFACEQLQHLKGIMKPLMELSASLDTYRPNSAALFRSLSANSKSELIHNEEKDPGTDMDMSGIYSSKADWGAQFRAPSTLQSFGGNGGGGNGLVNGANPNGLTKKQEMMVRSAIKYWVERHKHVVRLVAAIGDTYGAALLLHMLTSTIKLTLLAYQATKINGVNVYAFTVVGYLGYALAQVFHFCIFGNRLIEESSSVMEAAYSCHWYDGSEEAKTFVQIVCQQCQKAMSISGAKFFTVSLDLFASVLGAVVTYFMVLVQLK
Protocol: Free intracellular Ca^2+ concentration ([Ca^2+]i) was determined by fura-2 fluorescence as described (Messutat et al., Cell Calcium 30, 199-211. (2001)). In brief, cells were loaded with fura-2 by incubation in bath solution containing 2 µM fura-2/acetomethylester for 20 min. Free intracellular Ca^2+ concentration ([Ca^2+]i) was determined with the fluorescence ratio method. Excitation of fura-2 at 340 and 380 nm was performed with a monochromator (Polychrome II, T.I.L.L. Photonics, Gräfelfing, Germany) coupled via an epifluorescence condenser into an Axioskop FS microscope (Carl Zeiss, Jena, Germany) with a water immersion objective (LUMPFL 40xW/IR/0.8; Olympus, Hamburg, Germany). […] [Ca^2+]i was calculated according to the equation [Ca^(2 +)]i = Keff (R-Rmin)/(Rmax-R). […] Keff, Rmin, and Rmax were determined using HEK293 cells permeabilized with 2 µM ionomycin and three solutions with different concentrations of free Ca^2+ (Ca^2+ free; 5 mM Ca^2+; 500 nM Ca^2+; the composition of the 500 nM solution was calculated with WEBMAXC v.2.20) (Patton et al., Cell Calcium 35, 427-31 (2004)). […]
Fluorescence images were acquired using a cooled CCD camera controlled by TILLVision 4.0 software (T.I.L.L. Photonics). […] Image pairs were obtained by excitation for 100 ms at 340 nm and 380 nm; background fluorescence was subtracted.

SMILES: CCCC(=O)OCC [Etb, ethyl butyrate]
- effect on hHCN2 current time course [1]: accelerated the current time course
- effect on CNGA2 current ([2]; cells expressing Or22a plus Or83b or Or22a alone): concentration-dependent rise in CNGA2 current
- Hill coefficient of Etb-induced currents ([2]; cells expressing hCNGA2 and Or22a, -80 mV, n = 5): 0.54
- EC50 ([2]; cells expressing hCNGA2 and Or22a, -80 mV, normalized to controls, n = 5, read-out: EC50 of Etb-induced currents): 3 nM
- response of hCNGA2 current ([2]; cells solely expressing CNGA2, Etb 100 nM, forskolin 10 µM, -80 mV): did not respond
- intracellular Ca^2+ concentration ([Ca^2+]i) [3]: increased intracellular Ca^2+ concentration
